Results from paper PMC7427786, “An essential role of acetyl coenzyme A in the catalytic cycle of insect arylalkylamine N-acetyltransferase” (Communications Biology, 2020).
Each block holds one compound with its values, some of them ahead of it.

Experiments:
Type in all cases: binding
[1] = target: T1, Dat (dopamine N-acetyltransferase; Dat21-230) (Drosophila melanogaster, UniProt Q94521); test: isothermal titration calorimetry
T1 construct: gene speck; truncated Dat residues 21-230 of 240; pGEX-6p3, GST tag cut by PreScission protease; E. coli BL21 (DE3)
T1 sequence (Q94521 56-265): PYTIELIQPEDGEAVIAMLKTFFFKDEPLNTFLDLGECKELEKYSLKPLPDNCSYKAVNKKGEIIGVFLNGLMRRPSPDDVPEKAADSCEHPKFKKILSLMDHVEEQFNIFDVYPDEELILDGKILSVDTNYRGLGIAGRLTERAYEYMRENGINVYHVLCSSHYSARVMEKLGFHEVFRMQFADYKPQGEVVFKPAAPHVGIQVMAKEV
Excerpt: isothermal titration calorimetry on Dat (dopamine N-acetyltransferase; Dat21-230)

[2] = target: T1, Dat (dopamine N-acetyltransferase; Dat21-230); test: X-ray crystallography, cocrystal; conditions: substrate pocket
[3] = target: T1, Dat (dopamine N-acetyltransferase; Dat21-230); test: X-ray crystallography (cocrystallization of Dat, Ac-CoA and PEA); NMR HSQC; conditions: ternary complex with CoA; product formed in the crystal

Kd [1]: 5.51 ± 1.92 µM
Compound: CC(=O)SCCNC(=O)CCNC(=O)[C@H](O)C(C)(C)COP(=O)(O)OP(=O)(O)OC[C@H]1O[C@@H](n2cnc3c(N)ncnc32)[C@H](O)[C@@H]1OP(=O)(O)O [Ac-CoA]

Compound: CC(=O)NCCc1c[nH]c2ccccc12 [Ac-TRYP]
X-ray crystallography, cocrystal ([2]; ternary complex with CoA, 1.36 Å): Dat/CoA/Ac-TRYP (representing the enzyme-products complex)

Compound: CC(=O)NCCc1ccccc1 [Ac-PEA]
X-ray crystallography (cocrystallization of Dat, Ac-CoA and PEA); NMR HSQC [3]: crystals of Dat with two products, CoA and Ac-PEA (PDB code: 5GI7)

Compound: OCCc1c[nH]c2ccccc12 [tryptophol]
X-ray crystallography, cocrystal ([2]; ternary complex with Ac-CoA, dead-end analog of tryptamine, 1.28 Å): Dat/Ac-CoA/tryptophol (mimicking the enzyme-substrates complex)

Kd [1]: 153 ± 26.5 µM
Compound: CC(C)(COP(=O)(O)OP(=O)(O)OC[C@H]1O[C@@H](n2cnc3c(N)ncnc32)[C@H](O)[C@@H]1OP(=O)(O)O)[C@@H](O)C(=O)NCCC(=O)NCCS [CoA]
